# Reference: ChEMBL document CHEMBL4033677, “Design and synthesis of pyrazolo[3,4-d]pyrimidines: Nitric oxide releasing compounds targeting hepatocellular carcinoma” (Bioorg Med Chem, 2017)
# Legend:
# Assay type in all cases: functional
# HL-60(TB) = assay: Growth inhibition of human HL-60(TB) cells assessed as cell growth at 10^-5 M incubated for 48 hrs by sulforhodamine B assay relative to control; conditions: HL-60, 48 h, read-out: Activity
# K562 = assay: Growth inhibition of human K562 cells assessed as cell growth at 10^-5 M incubated for 48 hrs by sulforhodamine B assay relative to control; conditions: K562, 48 h, read-out: Activity
# MOLT-4 = assay: Growth inhibition of human MOLT4 cells assessed as cell growth at 10^-5 M incubated for 48 hrs by sulforhodamine B assay relative to control; conditions: MOLT-4, 48 h, read-out: Activity
# SR = assay: Growth inhibition of human SR cells assessed as cell growth at 10^-5 M incubated for 48 hrs by sulforhodamine B assay relative to control; conditions: read-out: Activity
# A549 = assay: Growth inhibition of human A549/ATCC cells assessed as cell growth at 10^-5 M incubated for 48 hrs by sulforhodamine B assay relative to control; conditions: A549, 48 h, read-out: Activity
# EKVX = assay: Growth inhibition of human EKVX cells assessed as cell growth at 10^-5 M incubated for 48 hrs by sulforhodamine B assay relative to control; conditions: read-out: Activity
# NCI-H23 = assay: Growth inhibition of human NCI-H23 cells assessed as cell growth at 10^-5 M incubated for 48 hrs by sulforhodamine B assay relative to control; conditions: NCI-H23, 48 h, read-out: Activity
# NCI-H522 = assay: Growth inhibition of human NCI-H522 cells assessed as cell growth at 10^-5 M incubated for 48 hrs by sulforhodamine B assay relative to control; conditions: NCI-H522, 48 h, read-out: Activity
# HCT-116 = assay: Growth inhibition of human HCT116 cells assessed as cell growth at 10^-5 M incubated for 48 hrs by sulforhodamine B assay relative to control; conditions: HCT-116, 48 h, read-out: Activity
# HT-29 = assay: Growth inhibition of human HT-29 cells assessed as cell growth at 10^-5 M incubated for 48 hrs by sulforhodamine B assay relative to control; conditions: HT-29, 48 h, read-out: Activity
# KM12 = assay: Growth inhibition of human KM12 cells assessed as cell growth at 10^-5 M incubated for 48 hrs by sulforhodamine B assay relative to control; conditions: KM12, 48 h, read-out: Activity
# SW-620 = assay: Growth inhibition of human SW620 cells assessed as cell growth at 10^-5 M incubated for 48 hrs by sulforhodamine B assay relative to control; conditions: SW-620, 48 h, read-out: Activity
# SF-295 = assay: Growth inhibition of human SF295 cells assessed as cell growth at 10^-5 M incubated for 48 hrs by sulforhodamine B assay relative to control; conditions: SF-295, 48 h, read-out: Activity
# SNB-19 = assay: Growth inhibition of human SNB19 cells assessed as cell growth at 10^-5 M incubated for 48 hrs by sulforhodamine B assay relative to control; conditions: SNB-19, 48 h, read-out: Activity
# M14 = assay: Growth inhibition of human M14 cells assessed as cell growth at 10^-5 M incubated for 48 hrs by sulforhodamine B assay relative to control; conditions: M14, 48 h, read-out: Activity
# SK-MEL-28 = assay: Growth inhibition of human SK-MEL-28 cells assessed as cell growth at 10^-5 M incubated for 48 hrs by sulforhodamine B assay relative to control; conditions: SK-MEL-28, 48 h, read-out: Activity
# SK-MEL-5 = assay: Growth inhibition of human SK-MEL-5 cells assessed as cell growth at 10^-5 M incubated for 48 hrs by sulforhodamine B assay relative to control; conditions: SK-MEL-5, 48 h, read-out: Activity
# UACC-257 = assay: Growth inhibition of human UACC257 cells assessed as cell growth at 10^-5 M incubated for 48 hrs by sulforhodamine B assay relative to control; conditions: UACC-257, 48 h, read-out: Activity
# UACC-62 = assay: Growth inhibition of human UACC62 cells assessed as cell growth at 10^-5 M incubated for 48 hrs by sulforhodamine B assay relative to control; conditions: UACC-62, 48 h, read-out: Activity
# IGROV-1 = assay: Growth inhibition of human IGROV1 cells assessed as cell growth at 10^-5 M incubated for 48 hrs by sulforhodamine B assay relative to control; conditions: IGROV-1, 48 h, read-out: Activity
# OVCAR-3 = assay: Growth inhibition of human OVCAR3 cells assessed as cell growth at 10^-5 M incubated for 48 hrs by sulforhodamine B assay relative to control; conditions: OVCAR-3, 48 h, read-out: Activity
# OVCAR-5 = assay: Growth inhibition of human OVCAR5 cells assessed as cell growth at 10^-5 M incubated for 48 hrs by sulforhodamine B assay relative to control; conditions: OVCAR-5, 48 h, read-out: Activity
# NCI/ADR-RES = assay: Growth inhibition of human NCI/ADR-RES cells assessed as cell growth at 10^-5 M incubated for 48 hrs by sulforhodamine B assay relative to control; conditions: read-out: Activity
# 786-0 = assay: Growth inhibition of human 786-0 cells assessed as cell growth at 10^-5 M incubated for 48 hrs by sulforhodamine B assay relative to control; conditions: 786-0, 48 h, read-out: Activity
# RXF 393 = assay: Growth inhibition of human RXF393 cells assessed as cell growth at 10^-5 M incubated for 48 hrs by sulforhodamine B assay relative to control; conditions: RXF 393, 48 h, read-out: Activity
# TK-10 = assay: Growth inhibition of human TK10 cells assessed as cell growth at 10^-5 M incubated for 48 hrs by sulforhodamine B assay relative to control; conditions: TK-10, 48 h, read-out: Activity
# UO-31 = assay: Growth inhibition of human UO31 cells assessed as cell growth at 10^-5 M incubated for 48 hrs by sulforhodamine B assay relative to control; conditions: UO-31, 48 h, read-out: Activity
# DU-145 = assay: Growth inhibition of human DU145 cells assessed as cell growth at 10^-5 M incubated for 48 hrs by sulforhodamine B assay relative to control; conditions: DU-145, 48 h, read-out: Activity
# MDA-MB-231 = assay: Growth inhibition of human MDA-MB-231 cells assessed as cell growth at 10^-5 M incubated for 48 hrs by sulforhodamine B assay relative to control; conditions: MDA-MB-231, 48 h, read-out: Activity
# Hs-578T = assay: Growth inhibition of human Hs 578T cells assessed as cell growth at 10^-5 M incubated for 48 hrs by sulforhodamine B assay relative to control; conditions: read-out: Activity
# BT-549 = assay: Growth inhibition of human BT549 cells assessed as cell growth at 10^-5 M incubated for 48 hrs by sulforhodamine B assay relative to control; conditions: BT-549, 48 h, read-out: Activity
# T47D = assay: Growth inhibition of human T47D cells assessed as cell growth at 10^-5 M incubated for 48 hrs by sulforhodamine B assay relative to control; conditions: read-out: Activity
Compound,growth at 10 µM (HL-60(TB)) [%],growth at 10 µM (K562) [%],growth at 10 µM (MOLT-4) [%],growth at 10 µM (SR) [%],growth at 10 µM (A549) [%],growth at 10 µM (EKVX) [%],growth at 10 µM (NCI-H23) [%],growth at 10 µM (NCI-H522) [%],growth at 10 µM (HCT-116) [%],growth at 10 µM (HT-29) [%],growth at 10 µM (KM12) [%],growth at 10 µM (SW-620) [%],growth at 10 µM (SF-295) [%],growth at 10 µM (SNB-19) [%],growth at 10 µM (M14) [%],growth at 10 µM (SK-MEL-28) [%],growth at 10 µM (SK-MEL-5) [%],growth at 10 µM (UACC-257) [%],growth at 10 µM (UACC-62) [%],growth at 10 µM (IGROV-1) [%],further results
Cc1nc(Nc2ccc(OCCCBr)cc2)c2cnn(-c3ccccc3)c2n1,97.6,102,93.6,85.2,72.2,76.5,90.7,81.6,67.2,96.6,98.3,93.3,101,92.6,94.5,107,96.2,94.4,86.2,90.3,growth at 10 µM (OVCAR-3): 106%; growth at 10 µM (OVCAR-5): 100%; growth at 10 µM (NCI/ADR-RES): 92.1%; growth at 10 µM (786-0): 91.6%; growth at 10 µM (RXF 393): 104%; growth at 10 µM (TK-10): 113%; growth at 10 µM (UO-31): 88.2%; growth at 10 µM (DU-145): 106%; growth at 10 µM (MDA-MB-231): 80.4%; growth at 10 µM (Hs-578T): 82.6%; growth at 10 µM (BT-549): 92.9%; growth at 10 µM (T47D): 83.6%
BrCCCOc1ccc(Nc2ncnc3c2cnn3-c2ccccc2)cc1,95.8,105,83.6,82.6,90.7,83.2,91.5,78.4,96.7,99.4,88.9,114,107,97.7,100,107,93,109,91.4,80.5,growth at 10 µM (OVCAR-3): 97%; growth at 10 µM (OVCAR-5): 104%; growth at 10 µM (NCI/ADR-RES): 98.3%; growth at 10 µM (786-0): 106%; growth at 10 µM (RXF 393): 105%; growth at 10 µM (TK-10): 128%; growth at 10 µM (UO-31): 75.8%; growth at 10 µM (DU-145): 108%; growth at 10 µM (MDA-MB-231): 96.9%; growth at 10 µM (Hs-578T): 101%; growth at 10 µM (BT-549): 93.4%; growth at 10 µM (T47D): 84.2%
Cc1nc(Nc2ccc(OCCCBr)cc2)c2c(C)nn(-c3ccccc3)c2n1,96.2,100,92,74.6,78.7,90.9,97.5,76.1,81.3,93.7,96.6,111,96.3,94.5,94,105,96.1,93.3,83,91.8,growth at 10 µM (OVCAR-3): 107%; growth at 10 µM (OVCAR-5): 91.4%; growth at 10 µM (NCI/ADR-RES): 107%; growth at 10 µM (786-0): 83.6%; growth at 10 µM (RXF 393): 97.9%; growth at 10 µM (TK-10): 94.5%; growth at 10 µM (UO-31): 95.7%; growth at 10 µM (DU-145): 109%; growth at 10 µM (MDA-MB-231): 94%; growth at 10 µM (Hs-578T): 97.3%; growth at 10 µM (BT-549): 91.6%; growth at 10 µM (T47D): 83.5%
Cc1nn(-c2ccccc2)c2ncnc(Nc3ccc(OCCCBr)cc3)c12,104,100,83.7,81.4,60.9,92.5,99,45.6,81.5,58.2,99.6,108,93,94.7,91.3,101,86.6,84.8,89.3,105,growth at 10 µM (OVCAR-3): 103%; growth at 10 µM (OVCAR-5): 103%; growth at 10 µM (NCI/ADR-RES): 102%; growth at 10 µM (786-0): 64.3%; growth at 10 µM (RXF 393): 102%; growth at 10 µM (TK-10): 89.9%; growth at 10 µM (UO-31): 92.4%; growth at 10 µM (DU-145): 108%; growth at 10 µM (MDA-MB-231): 87.4%; growth at 10 µM (Hs-578T): 111%; growth at 10 µM (BT-549): 97.8%; growth at 10 µM (T47D): 84.8%
